Each structure is given as a SMILES string. pIC50: −log10 of the molar value.

As usually defined, the pIC50 is −log10 of the IC50, conventionally taken in molar units.

The subject of one assay is A549 lung cancer cells. As to the kind of experiment: SRB growth inhibition of A549 lung cancer cells. Type of assay: cell-based, human. The conditions noted are these: for pIC50: A549 lung cancer cells, unit inferred, read-out: SRB (IC50 for growth inhibition of A549 lung cancer cells).
Another assay concerns eIF2α. In words: eIF2α phosphorylation measured by Western blot. The conditions noted are these: for eIF2α-P (phosphorylation of eIF2α measured by Western blot): unit or reference not given. The assay is classed as cell-based. The text has this:
As a non-limiting example, compounds 1272 and 1273 (set forth in Table 1) were synthesized starting from 3-bromoaniline, which upon condensation with hydroxylamine and chloral hydrate followed by concentrated sulfuric acid yielded an inseparable regioisomeric mixture of 4- and 6-bromo isatins. The addition of the two phenyl groups to the three position of the oxindole allowed easy chromatographic separation of the 4- and 6-bromo-3,3-diphenyloxindoles 1272 and 1273. Table 1 sets forth biological data for diaryloxindole compounds including, but not limited to 1272 and 1273. For Tables 1-14, Ca^2+ refers to Ca^2+ release from intracellular stores where a “+” denotes release and a “+/−” denotes inconclusive; eIF2α-P refers to phosphorylation of eIF2α measured by Western blot; SRB refers to the inhibitory concentration to reduce cell growth by 50% (IC50) for growth inhibition of A549 lung cancer cells; and n.d. is not determined.
Without intending to be bound by theory, the mechanism of action of translation initiation inhibitors is set forth in FIG. 1, and includes the depletion (complete or partial depletion) of intracellular calcium (Ca^2+) stores and phosphorylation of eIF2α. Compounds synthesized using the approaches described herein were screened for their ability to partially deplete intracellular Ca^2+ stores using FURA-2AM loaded cells (Benzaquen et al. (1995) Nature Medicine, 1:534, incorporated herein by reference in its entirety for all purposes). A limited subset of compounds were further screened for their ability to deplete endoplasmic reticulum (ER) Ca^2+. The Ca^2+ content of the ER was monitored using ER-targeted, Ca^2+ sensitive, recombinant proteins. These recombinant proteins emitted light by fluorescent resonance energy transfer (FRET) as a function of the Ca^2+ content of the medium. Such assays are previously described (Miyawaki, A.; Mizuno, H.; Llopis, J.; Tsien, R. Y.; Jalink, K. Cameleons as cytosolic and intra-organellar calcium probes, Oxford University Press: Oxford, London, 2001; pp 3-16, incorporated herein by reference in its entirety for all purposes). Compounds that depleted Ca^2+ were further evaluated for their ability to phosphorylate eIF2α. eIF2α phosphorylation was measured by Western blot analysis using the phospho-specific anti-eIF2α antibody, as previously described (Aktas et al. (1998) Proc. Natl. Acad. Sci. USA, 95:8280, incorporated herein by reference in its entirety for all purposes).

The subject of assay [1] is intracellular Ca^2+ stores. In words: Ca2+ release from intracellular stores (FURA-2AM loaded cells). Type of assay: cell-based. Also noted: key to Ca^2+ (Ca^2+ release from intracellular stores): a “+” denotes release; a “+/−” denotes inconclusive. Put shortly:
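Ca2+ release scored in FURA-2AM loaded cells as "+" (release) or "+/−" (inconclusive); some compounds also tested with ER-targeted FRET Ca2+ sensors. Ca2+-depleting compounds were then tested for eIF2α phosphorylation by Western blot with phospho-specific anti-eIF2α antibody.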

On to `CC(C)(C)c1ccc(C2(c3ccccc3O)C(=O)Nc3ccccc32)cc1` (centres unmarked) [Compound 1239], for which, in the assay on A549 lung cancer cells, the negative-log IC50 (pIC50) is 5.10. Besides, the “eIF2α-P (phosphorylation of eIF2α measured by Western blot)” value (from here on “eIF2α-P”) with eIF2α was determined as 1.88. The “Ca^2+ (Ca^2+ release from intracellular stores)” value in assay [1] is listed as “+”.

As for `Cc1cc(C2(c3ccccc3)C(=O)Nc3ccccc32)c(NS(=O)(=O)Cc2ccccc2)cc1O` (centres unmarked) [Compound 1405], the pIC50 with A549 lung cancer cells was 5.40. In addition, in the assay with eIF2α, the “eIF2α-P” value was 1.84. Further, in assay [1], the “Ca^2+ (Ca^2+ release from intracellular stores)” value was “+”.

Regarding `CC(C)(C)c1ccc(O)c(C2(c3ccccc3)C(=O)Nc3ccc(Br)cc32)c1` (centres unmarked) [Compound 1211], the negative-log IC50 (pIC50) in the assay with A549 lung cancer cells is 5.52. Moreover, the “eIF2α-P” value with eIF2α turned out to be 1.14. Further, in assay [1], the “Ca^2+ (Ca^2+ release from intracellular stores)” value was “+”.

As for `CCCCCc1ccc(O)c(C2(c3ccccc3)C(=O)Nc3ccccc32)c1` (centres unmarked) [Compound 1286], in the assay on A549 lung cancer cells, the pIC50 was 5.52. The “eIF2α-P” value in the assay on eIF2α is 8.60. For the same compound, the “Ca^2+ (Ca^2+ release from intracellular stores)” value in assay [1] was “+”.

For `CC(C)(C)c1ccc(O)c(C2(c3ccccc3)C(=O)Nc3c(I)cccc32)c1` (centres unmarked) [Compound 1253], the pIC50 with A549 lung cancer cells is 5.22. Also, the “eIF2α-P” value with eIF2α was determined as 2.05. Further, in assay [1], the “Ca^2+ (Ca^2+ release from intracellular stores)” value is “+”.

As for `CC(C)(C)c1ccc(O)c(C2(c3cccc(F)c3)C(=O)Nc3ccccc32)c1` (centres unmarked) [Compound 1223], the negative logarithm of the IC50 (pIC50) with A549 lung cancer cells was 5.15. In addition, in the assay with eIF2α, the “eIF2α-P” value worked out at 4.41. Besides, the “Ca^2+ (Ca^2+ release from intracellular stores)” value in assay [1] is listed as “+”.

For the compound `CC(C)(C)c1ccc(OCC(=O)O)c(C2(c3ccccc3)C(=O)Nc3ccccc32)c1` (centres unmarked) [Compound 1397], in the assay on A549 lung cancer cells, the pIC50 is 5.10. In addition, in the assay with eIF2α, the “eIF2α-P” value was found to be 1.46. The “Ca^2+ (Ca^2+ release from intracellular stores)” value in assay [1] is recorded as “+”.

Regarding `Cc1ccccc1C1(c2cc(C(C)(C)C)ccc2O)C(=O)Nc2ccccc21` (centres unmarked) [Compound 1225], in the assay on A549 lung cancer cells, the negative logarithm of the IC50 (pIC50) was 5.40. Moreover, the “eIF2α-P” value with eIF2α was determined as 1.69. Also, in assay [1], the “Ca^2+ (Ca^2+ release from intracellular stores)” value was “+”.

As to `CC(C)(C)c1ccc(O)c(C2(c3ccccc3)C(=O)Nc3ccc(N)cc32)c1` (centres unmarked) [Compound 1231], the negative-log IC50 (pIC50) in the assay on A549 lung cancer cells was 4.85. The “eIF2α-P” value in the assay on eIF2α is 1.46. Also, the “Ca^2+ (Ca^2+ release from intracellular stores)” value in assay [1] was “+”.

Take `Cc1cc(C2(c3ccccc3)C(=O)Nc3ccccc32)c(NS(=O)(=O)c2ccc(Br)cc2)cc1O` (centres unmarked) [Compound 1591]: the negative-log IC50 (pIC50) in the assay on A549 lung cancer cells is 5.52. Moreover, in the assay with eIF2α, the “eIF2α-P” value is listed as 3.30. Also, the “Ca^2+ (Ca^2+ release from intracellular stores)” value in assay [1] is recorded as “+”.

`O=C1Nc2ccc(I)cc2C1(c1ccccc1)c1ccccc1` [Compound 1264]: in the assay with A549 lung cancer cells, the pIC50 was 5.05. In addition, in the assay on eIF2α, the “eIF2α-P” value turned out to be 2.53. For the same compound, the “Ca^2+ (Ca^2+ release from intracellular stores)” value in assay [1] is recorded as “+”.

Take `COc1ccccc1C1(c2ccc(C(C)(C)C)cc2)C(=O)Nc2ccccc21` (centres unmarked) [Compound 1237]: in the assay with A549 lung cancer cells, the pIC50 is 4.77. In addition, the “eIF2α-P” value in the assay with eIF2α was 1.3. The “Ca^2+ (Ca^2+ release from intracellular stores)” value in assay [1] is reported as “+”.

Regarding `C=CCN1C(=O)C(c2ccccc2)(c2cc(C(C)(C)C)ccc2O)c2ccccc21` (centres unmarked) [Compound 1236], in the assay on A549 lung cancer cells, the pIC50 is 5.52. The “eIF2α-P” value in the assay with eIF2α worked out at 2.23. Further, in assay [1], the “Ca^2+ (Ca^2+ release from intracellular stores)” value was “+/−”.

With `COC(=O)COc1ccc(C(C)(C)C)cc1C1(c2ccccc2)C(=O)Nc2ccccc21` (centres unmarked) [Compound 1402], the pIC50 in the assay on A549 lung cancer cells was 5.05. Further, the “eIF2α-P” value with eIF2α was 3.94. Besides, the “Ca^2+ (Ca^2+ release from intracellular stores)” value in assay [1] is reported as “+”.

Take `Nc1ccc(CCNC(=O)c2ccc(Cl)c3c2NC(=O)C3(c2ccccc2)c2ccccc2)cc1` [Compound 1355]: the pIC50 in the assay on A549 lung cancer cells is 5.30. The “eIF2α-P” value in the assay with eIF2α is 3.80. In addition, in assay [1], the “Ca^2+ (Ca^2+ release from intracellular stores)” value was “+/−”.

On to `O=C1Nc2ccccc2C1(c1ccccc1)c1cc(C2CCCCC2)ccc1O` (centres unmarked) [Compound 1290], for which the pIC50 in the assay with A549 lung cancer cells was 5.52. Further, the “eIF2α-P” value with eIF2α is reported as 8.60. The “Ca^2+ (Ca^2+ release from intracellular stores)” value in assay [1] is “+/−”.

For `O=C1Nc2ccccc2C1(c1ccccc1)c1ccc(O)c(C(F)(F)F)c1` (centres unmarked) [Compound 1242], the pIC50 with A549 lung cancer cells is 4.85. The “eIF2α-P” value in the assay with eIF2α was 2.72. Besides, the “Ca^2+ (Ca^2+ release from intracellular stores)” value in assay [1] was “+”.

For the compound `CC(C)(C)c1ccc(O)c(C2(c3ccccc3)C(=O)Nc3cccc(Cl)c32)c1` (centres unmarked) [Compound 1209], the negative logarithm of the IC50 (pIC50) in the assay on A549 lung cancer cells was 5.10. Moreover, the “eIF2α-P” value in the assay with eIF2α amounted to 2.08. Also, the “Ca^2+ (Ca^2+ release from intracellular stores)” value in assay [1] is “+”.

Take `O=C1Nc2ccccc2C1(c1ccccc1)c1ccc(OCCO)cc1` (centres unmarked) [Compound 1299]: in the assay on A549 lung cancer cells, the pIC50 is 5.30. Further, the “eIF2α-P” value with eIF2α was 0.71. In addition, the “Ca^2+ (Ca^2+ release from intracellular stores)” value in assay [1] is on record as “+”.

As for `CCCCc1ccc(C2(c3ccccc3)C(=O)Nc3ccccc32)cc1` (centres unmarked) [Compound 1298], the negative logarithm of the IC50 (pIC50) with A549 lung cancer cells was 5.10. Further, the “eIF2α-P” value in the assay on eIF2α was found to be 0.45. Also, the “Ca^2+ (Ca^2+ release from intracellular stores)” value in assay [1] is on record as “+/−”.

For the compound `CC(C)(C)c1ccc(O)c(C2(c3ccccc3)C(=O)Nc3ccc(I)cc32)c1` (centres unmarked) [Compound 1213], the negative logarithm of the IC50 (pIC50) in the assay on A549 lung cancer cells is 5.52. In the assay with eIF2α, the “eIF2α-P” value is 2. For the same compound, the “Ca^2+ (Ca^2+ release from intracellular stores)” value in assay [1] is recorded as “+/−”.

`COc1ccc(S(=O)(=O)Nc2cc(O)c(C)cc2C2(c3ccccc3)C(=O)Nc3ccccc32)cc1` (centres unmarked) [Compound 1590]: the pIC50 in the assay on A549 lung cancer cells is 5.30. The “eIF2α-P” value in the assay with eIF2α is recorded as 1.12. Besides, the “Ca^2+ (Ca^2+ release from intracellular stores)” value in assay [1] is “+”.

For `CC(C)Cc1ccc(C2(c3ccccc3)C(=O)Nc3ccccc32)cc1` (centres unmarked) [Compound 1297], in the assay with A549 lung cancer cells, the negative-log IC50 (pIC50) was 5.10. Also, the “eIF2α-P” value in the assay on eIF2α turned out to be 0.7. In addition, the “Ca^2+ (Ca^2+ release from intracellular stores)” value in assay [1] is recorded as “+”.

In the case of `COC(=O)c1ccc(Cl)c2c1NC(=O)C2(c1ccccc1)c1ccccc1` [Compound 1351], the negative logarithm of the IC50 (pIC50) in the assay with A549 lung cancer cells was < 4.70. Also, in the assay on eIF2α, the “eIF2α-P” value is recorded as 1.35. Besides, in assay [1], the “Ca^2+ (Ca^2+ release from intracellular stores)” value is “+/−”.

Turning to `O=C(O)c1ccc(Cl)c2c1NC(=O)C2(c1ccccc1)c1ccccc1` [Compound 1392], the “growth inhibition of cancer cells (in words)” value in the assay with A549 lung cancer cells (A549) is reported as “improved growth inhibition of cancer cells”. Also, the negative-log IC50 (pIC50) in the assay with A549 lung cancer cells is 5.40. In the assay on eIF2α, the “eIF2α phosphorylation (in words)” value is listed as “improved eIF2α phosphorylation” and the “eIF2α-P” value turned out to be 2.76. The “Ca^2+ (Ca^2+ release from intracellular stores)” value in assay [1] was “+”.

With `CC(C)(C)c1ccc(C2(c3ccccc3)C(=O)Nc3ccccc32)cc1` (centres unmarked) [Compound 1349], the pIC50 with A549 lung cancer cells is 5.10. In addition, the “eIF2α-P” value with eIF2α turned out to be 1.27. Besides, in assay [1], the “Ca^2+ (Ca^2+ release from intracellular stores)” value is listed as “+”.

As for `CCc1ccc2c(c1)NC(=O)C2(c1ccccc1)c1ccccc1` [Compound 1271], the pIC50 in the assay with A549 lung cancer cells was 5.40. Further, the “eIF2α-P” value in the assay on eIF2α was found to be 1.58. Moreover, in assay [1], the “Ca^2+ (Ca^2+ release from intracellular stores)” value is recorded as “+”.

Take `CC(C)(C)c1ccc(O)c(C2(c3ccccc3)C(=O)Nc3cc(Br)ccc32)c1` (centres unmarked) [Compound 1235]: in the assay with A549 lung cancer cells, the negative logarithm of the IC50 (pIC50) was 5.40. Further, the “eIF2α-P” value in the assay on eIF2α stood at 3.2. The “Ca^2+ (Ca^2+ release from intracellular stores)” value in assay [1] was “+”.

For the origin of these results see patent publication US8044089B2, “3-3-di-substituted-oxindoles as inhibitors of translation initiation” (President and Fellows of Harvard College, priority 2004, dated 2011).
